Assay results: patent US20210009575A1, “HYDROXYISOXAZOLINES AND DERIVATIVES THEREOF” (Bayer Aktiengesellschaft, priority 2017, published 2021)
Where two headings read alike, the source gives them in different places.

Key:
[1] = test system: Colletotrichum lindemuthianum; assay: Colletotrichum lindemuthianum in vitro cell test; type: cell-based; settings: 144 h, read-out: efficacy
Puccinia recondita = assay: In vivo preventive test on Puccinia recondita (brown rust on wheat); settings: 264 h, read-out: efficacy
[2] = for LogP: method [a]: LC-UV, acidic range, Table 1
[3] = 20 ppm of active ingredient, inhibition of fungal growth, 6 days incubation, liquid culture
[4] = 500 ppm of active ingredient, wheat sprayed 24 hours before contamination, evaluated 11 days after the inoculation

| chromatographic logP (physchem) | Structure (SMILES) | inhibition of growth at 20 ppm [1, 3] | pest or weed control at 500 ppm (Puccinia recondita; [4]) | other results |
| --- | --- | --- | --- | --- |
| 2.98 | CON=C(C)c1ccc(C2=NOC(O)(C(F)(F)F)C2)cc1 (stereo not shown) [Ia-037, 3-[4-(N-methoxvethanimidovl)phenyl]-5-(trifluoromethyl)-4,5-dihydro-1,2-oxazol-5-ol] | 90 to 100% |  |  |
| 3.41 | OC1(C(F)(F)F)CC(c2ccc(C#CC3CC3)cc2)=NO1 (stereo not shown) [Ia-031, 3-[4-(cvclopropvlethvnvl)phenyl]-5-(trifluoromethyl)-4,5-dihydro-1,2-oxazol-5-ol] | 90 to 100% | 80 to 89% |  |
| 1.84 | O=C(O)c1ccc(C2=NOC(O)(C(F)(F)Cl)C2)cc1 (stereo not shown) [Ib-048, 4-{5-[chloro(difluoro)methyl]-5-hydroxy-4,5-dihydro-1,2-oxazol-3-yl}benzoic acid] |  |  |  |
| 2.11 | CC(=O)c1ccc(C2=NOC(O)(C(F)(F)F)C2)cc1 (stereo not shown) [Ia-038, 1-{4-[5-hydroxy-5-(trifluoromethyl)-4,5-dihydro-1,2-oxazol-3-yl]phenyl}ethanone] | 90 to 100% | 90 to 100% |  |
| 1.78 | CC(O)c1ccc(C2=NOC(O)(C(F)(F)F)C2)cc1 (stereo not shown) [Ia-044, 3-[4-(1-hydroxyethyl)phenyl]-5-(trifluoromethyl)-4,5-dihydro-1,2-oxazol-5-ol] | 80 to 89% | 90 to 100% |  |
|  | CN(C)C(=O)Oc1ccc(C2=NOC(O)(C(F)(F)Cl)C2)cc1 (stereo not shown) [Ib-095, 4-{5-[Chloro(difluoro)methyl]-5-hydroxy-4,5-dihydro-1,2-oxazol-3-yl}phenyl dimethylcarbamate] |  |  | pest or weed control at 500 ppm (Puccinia recondita): 90 to 100%; inhibition of growth at 20 ppm [1]: 80 to 89%; chromatographic logP [2]: 2.35 |
| 2.55 | COC(=O)c1ccc(C2=NOC(O)(C(F)(F)Cl)C2)cc1 (stereo not shown) [Ib-049, methyl 4-{5-[chloro(difluoro)methyl]-5-hydroxy-4,5-dihydro-1,2-oxazol-3-yl}benzoate] |  |  |  |
| 2.11 | COC(=O)c1ccc(C(=O)CC(=O)C(F)(F)Cl)cc1 [Compound 1b-04, methyl 4-(4-chloro-4,4-difluoro-3-oxobutanoyl)benzoate] |  |  |  |
| 1.86 | OC1(C(F)(F)F)CC(c2ccc(-c3cncnc3)cc2)=NO1 (stereo not shown) [Ia-087, 3-[4-(pyrimidin-5-yl)phenyl]-5-(trifluoromethyl)-4,5-dihydro-1,2-oxazol-5-ol] | 90 to 100% | 90 to 100% |  |
|  | OC1(C(F)(F)F)CC(c2ccc(-c3ccc4sccc4c3)cc2)=NO1 (stereo not shown) [Ia-108] |  |  | LogP [2]: 3.94^[a] |
| 2.43 | CCc1noc(-c2ccc(C(=O)/C=C(\O)C(F)(F)F)cc2)n1 [Compound 1b-02, 1-[4-(3-Ethyl-1,2,4-oxadiazol-5-yl)phenyl]-4,4,4-trifluoro-3-hydroxy-but-2-en-1-one] |  |  |  |
| 2.17 | CN(C(=O)c1ccc(C(=O)/C=C(\O)C(F)(F)F)cc1)c1ccccc1 [Compound 1b-01] |  |  |  |
| 1.49 | Nc1ccc(C2=NOC(O)(C(F)(F)F)C2)cc1 (stereo not shown) [Ia-114, 3-(4-aminophenyl)-4,5-dihydro-5-(trifluoromethyl)-5-isoxazolol] | 80 to 89% | 90 to 100% |  |
| 0.63 | NCc1ccc(C2=NOC(O)(C(F)(F)F)C2)cc1 (stereo not shown) [Ia-112, 3-(4-Aminomethyl-phenyl)-5-trifluoromethyl-4,5-dihydro-isoxazol-5-ol] |  | 90 to 100% |  |
| 2.88 | CCc1noc(-c2ccc(C3=NOC(O)(C(F)(F)F)C3)cc2)n1 (stereo not shown) [Ia-093, 3-[4-(3-Ethyl-1,2,4-oxadiazol-5-yl)phenyl]-5-(trifluoromethyl)-4H-isoxazol-5-ol] | 90 to 100% | 90 to 100% |  |
| 2.76 | O=C(Nc1ccc(F)cc1F)c1ccc(C2=NOC(O)(C(F)(F)Cl)C2)cc1 (stereo not shown) [Ib-030, 4-{5-[chloro(difluoro)methyl]-5-hydroxy-4,5-dihydro-1,2-oxazol-3-vl}-N-(2,4-difluorophenyl)benzamide] |  |  |  |
| 3.21 | Cc1ccc(C)n1-c1ccc(C(=O)CC(=O)C(F)(F)F)cc1 [Compound 1b-35, 1-[4-(2,5-dimethyl-1H-pyrrol-1-yl)phenyl]-4,4,4-trifluoro-1,3-butanedione] |  |  |  |
| 3.46 | OC1(C(F)(F)F)CC(c2ccc(-c3ccc(F)cc3)cc2)=NO1 (stereo not shown) [Ia-075, 3-(4′-fluoro[biphenyl]-4-yl)-5-(trifluoromethyl)-4,5-dihydro-1,2-oxazol-5-ol] | 90 to 100% | 80 to 89% |  |
|  | CCc1noc(-c2ccc(C3=NOC(OC(C)=O)(C(F)(F)F)C3)cc2)n1 (stereo not shown) [Ia-095, [3-[4-(3-Ethyl-1,2,4-oxadiazol-5-yl)phenyl]-5-(trifluoromethyl)-4H-isoxazol-5-yl]acetate] |  |  | LogP [2]: 3.68^[a] |
